Laboratory results published in publication PMC7870753, “Population pharmacokinetics of ATR inhibitor berzosertib in phase I studies for different cancer types” (Cancer Chemotherapy and Pharmacology, 2020).
Where two headings read alike, the source gives them in different places.

What was measured:
[1] = Population PK analysis (non-linear mixed-effect, two-compartment linear model) of berzosertib plasma concentrations, Studies 001 and 002; format: in vivo; conditions: for cov (Q, V2) / cov (V1, Q) / cov (V1, V2): covariance; for clearance: human, plasma, read-out: Clearance CL (converted)
Protocol: Longitudinal berzosertib plasma concentration and dosing data from the two phase I clinical trials, described above, were available for the analysis. The studies were performed in accordance with the Declaration of Helsinki; all participants provided written informed consent before blood samples were collected.
Study 001 (Online Resource Figure S1) was a phase I, open-label, first-in-human multiple ascending dose study to investigate the safety, tolerability, and PK of berzosertib alone and in combination with cytotoxic chemotherapy in patients with advanced solid tumors. The RP2D or maximum tolerated dose was determined in dose escalation parts A and B with further evaluation of safety and efficacy in expansion cohorts (parts C1–3). PK data were available from 170 patients who received twice-weekly 1-h intravenous infusions of berzosertib (18–210 mg/m^2) during a 7–14-day monotherapy lead-in. This preceded combination with chemotherapies, administered on day 1, and berzosertib administered on days 2 and 9 every 21 days following (1) gemcitabine, or cisplatin and gemcitabine (54 patients, Part A); (2) cisplatin (29 patients, Part B); (3) gemcitabine in patients with non-small cell lung cancer (NSCLC; 36 patients, Part C1); (4) cisplatin in patients with triple-negative breast cancer (TNBC) basaloid subtype and BRCA wild type (37 patients, Part C2); cisplatin or carboplatin in patients with platinum-resistant small cell lung cancer (SCLC; 14 patients, Part C3). Berzosertib was also evaluated in combination with irinotecan in a subsequent study cohort (Part B2). In Study 001, Parts A and B, rich PK sampling (pre-dose, 0.5, 1 h (end of infusion), 1.5, 2, 4, 8, 24, 48, and 72 h after the start of infusion) was performed for most patients following berzosertib monotherapy in the lead-in. Similar rich PK sampling was conducted on cycle 1 days 2 through 5 after the first dose of berzosertib in combination with other agents in study parts A and B or during dose escalation. Additional sparse samples (pre-dose and 2 h after the end of infusion) were taken during cycle 1, day 9 and cycle 2, day 2. In the expansion cohorts Parts C1, C2, and C3, limited PK sampling was performed on cycle 1 day 2: pre-dose, 0.5, 1 h (end of infusion), 1.5, 2, 4, and (optionally) 8 h after the start of infusion. Similar sampling was performed on cycle 1, day 9 on a portion of the participants before being removed by amendment.
Study 002 (Online Resource Figure S1) was a phase I, open-label, multiple ascending dose study to investigate the safety, tolerability, and PK/PD profile of berzosertib as a single agent and in combination with carboplatin or carboplatin and paclitaxel in patients with advanced solid tumors. PK data were available from 70 patients who received 1-h intravenous infusions of berzosertib (1) as a single agent once weekly (11 patients, Part A1); (2) as a single agent twice weekly (6 patients, Part A2); (3) on days 2 and 9 every 21 days following carboplatin on day 1 (23 patients, Part B1); (4) on days 2 and 9 every 21 days following carboplatin and paclitaxel on day 1 (15 patients, Part B2); (5) on days 2 and 9 following carboplatin on day 1 every 21 days in patients with advanced solid tumors and lymphoma with defects in the DDR (15 patients, Part C). In Study 002, in all study parts, rich PK sampling (pre-dose, 0.5, 1 h (end of infusion), 1.5, 2, 4, 8, 24, and 48 h after start of infusion) was performed after the first dose of berzosertib. In Part A1, additional sparse samples (pre-dose, 0.5–2 h after the end of infusion) were collected on cycle 1, day 8 and day 15. […]

p-Chk1 = system: p-Chk1; set-up: method as in earlier work; conditions: cited from earlier work
[2] = cited from earlier work
CYP3A4 = conditions: based on in vitro data; cited from earlier work
[3] = cited from earlier work; remark: listed apart in the source
[4] = system: patient-derived non-small cell lung tumor xenografts; set-up: method as in PMID 25010037; conditions: multiple patient-derived non-small cell lung tumor xenografts; cited from earlier work
[5] = system: acute myeloid leukemia cells; set-up: method as in PMID 29789314; conditions: in combination with gemcitabine; cited from earlier work
acute myeloid leukemia = system: acute myeloid leukemia; set-up: method as in PMID 29789314; conditions: orthotopic mouse model, in combination with gemcitabine; cited from earlier work
pancreatic cancer cells = system: pancreatic cancer cells; set-up: method as in PMID 23222511, PMID 22825331; conditions: pancreatic cancer cells vs normal cells; cited from earlier work
[6] = system: pancreatic cancer xenografts; set-up: method as in PMID 23222511, PMID 22825331; conditions: after radiation and gemcitabine-based chemoradiation; cited from earlier work
[7] = full covariate model, typical patient, intravenous infusion

With `CNCc1ccc(-c2cc(-c3nc(-c4ccc(S(=O)(=O)C(C)C)cc4)cnc3N)on2)cc1` [berzosertib, 5-(4-(Isopropylsulfonyl)phenyl)-3-(3-(4-((methylamino)methyl)phenyl)isoxazol-5-yl)pyrazin-2-amine] the Additive residual error ([1]; base model) was 1.9 ng/mL, the “Central volume V1” value ([1]; base model) was 111 L and the “Peripheral volume V2” value ([1]; base model) was 861 L. For the same compound, the “Proportional residual error [sd]” value ([1]; base model) was 0.22, the “cov (Q, V2)” value ([1]; base model) was 0.089 and the “cov (V1, Q)” value ([1]; base model) was 0.26. For the same compound, the “cov (V1, V2)” value ([1]; base model) was 0.093, the “IIV on V1 [var]” value ([1]; base model, variance) was 0.38 and the “IIV on Q [var]” value ([1]; base model, variance, first line so headed (r14)) was 0.24. For the same compound, the “IIV on Q [var]” value ([1]; base model, variance, second line so headed (r16)) was 0.071, the “PK interaction with evaluated chemo-combinations” value ([1]; berzosertib with gemcitabine, cisplatin, carboplatin, paclitaxel combinations) was “no evidence of a clinically significant PK interaction” and the “V1 lower in female patients than in male patients” value ([1]; female vs male patients) was 15.8%. For the same compound, the Additive residual error ([1]; full covariate model) was 1.73 ng/mL, the “Proportional residual error [sd]” value ([1]; full covariate model) was 0.22 and the “cov (Q, V2)” value ([1]; full covariate model) was 0.090. The “cov (V1, Q)” value ([1]; full covariate model) was 0.25, the “cov (V1, V2)” value ([1]; full covariate model) was 0.081 and the “Central volume V1” value [1, 7] was 118 L. For the same compound, the “Peripheral volume V2” value [1, 7] was 1030 L, the “IIV on Q [var]” value ([1]; full covariate model, variance) was 0.24 and the “IIV on V1 [var]” value ([1]; full covariate model, variance) was 0.32. The “IIV on V2 [var]” value ([1]; full covariate model, variance) was 0.047, the “increase for V1” value ([1]; high extreme of albumin) was 18% and the “median increase in CL” value ([1]; high extreme of body weight) was 12%. The “median increase in V1” value ([1]; high extremes of tumor size at baseline) was 24%, the clearance ([1]; intravenous, base model) was 933 mL/min and the clearance ([1]; full covariate model, typical patient, intravenous infusion, 240 patients, 18–480 mg/m^2) was 1080 mL/min. For the same compound, the “median decrease for V2” value ([1]; low extreme of age) was 16.7%, the “median decrease for V1” value ([1]; low extreme of albumin) was 28.6% and the “decrease in CL” value ([1]; low extreme of body weight) was 9%. The “higher CL in patients with TNBC” value ([1]; patients with TNBC vs female patients with other tumor types) was 42%, the “total plasma concentration needed to reach 50% of maximal inhibition (IC50) of p-Chk1 in humans” value (p-Chk1; estimated from multiple preclinical tumor models with carboplatin, irinotecan, cisplatin or gemcitabine, adjusted for species differences in plasma protein binding) was “approximately 110 ng/mL” and the “inhibition of p-Chk1” value (p-Chk1; tumor-bearing mice, in combination with various chemotherapies) was “dose-dependent inhibition of p-Chk1”. The “PK linearity over the dose range” value ([2]; 18–480 mg/m^2) was “linear”, the renal excretion ([2]; Study 001) was 5–6% and the terminal half-life ([2]; patients, intravenous, 18–480 mg/m^2) was “approximately 17 h”. The “elimination via metabolism, enzyme” value (CYP3A4) was “mainly mediated by CYP3A4”, the “recommended phase II dose (RP2D)” value ([3]; days 2 and 9 following 75 mg/m^2 cisplatin (day 1)) was 140 mg/m^2 and the “recommended phase II dose (RP2D)” value ([3]; days 2 and 9 following 1000 mg/m^2 gemcitabine (days 1 and 8)) was 210 mg/m^2. For the same compound, the “recommended phase II dose (RP2D)” value ([3]; days 2 and 9 following carboplatin AUC 5 (day 1)) was 90 mg/m^2, the “efficacy in combination with cisplatin” value [4] was “dramatically enhanced the efficacy of cisplatin” and the sensitization of cells [5] was “acutely sensitized acute myeloid leukemia cells”. For the same compound, the survival (acute myeloid leukemia) was “increased survival”, the “sensitization to radiation and/or gemcitabine” value (pancreatic cancer cells) was “selectively sensitized pancreatic cancer cells but not normal cells” and the “growth delay of xenografts” value [6] was “markedly prolonged growth delay”. For the same compound, the “normal cell or tissue toxicity” value [6] was “without augmenting normal cell or tissue toxicity”.
